The results in this text go back to ChEMBL document CHEMBL5620345, “Metal binding pharmacophore click-derived discovery of new broad-spectrum metallo-β-lactamase inhibitors” (Eur J Med Chem, 2023).

pIC50: −log10 of the molar value. Where only a bound is given, the exact number is not on record here.

Assay [1] relates to Escherichia coli. Put plainly: Antibacterial activity against Escherichia coli C1541 expressing blaVIM-2 clinical isolates assessed as meropenem MIC incubated for 16 to 18 hrs by broth microdilution method. It is filed as functional. The note with it: time 16-18 hrs. For orientation: Dilution methods test growth across graded concentrations, often in twofold steps.
A short description of assay [2]: Inhibition of recombinant VIM-5 (unknown origin) expressed in Escherichia coli (DE3) cells using FC5 as substrate by microplate reader assay.
A short description of assay [3]: Inhibition of recombinant his tagged VIM-2 (unknown origin) expressed in Escherichia coli (DE3) cells using FC5 as substrate by microplate reader assay.
Assay [4] has as its system Escherichia coli. Put plainly: Antibacterial activity against Escherichia coli BAA2452 expressing blaNDM-1 clinical isolates assessed as meropenem MIC incubated for 16 to 18 hrs by broth microdilution method. The note with it: time 16-18 hrs. It counts as functional.
Assay [5] relates to Escherichia coli. Put plainly: Antibacterial activity against Escherichia coli BAA2452 expressing blaNDM-1 clinical isolates assessed as fold potentiation incubated for 16 to 18 hrs by broth microdilution method. It is filed as functional. The note with it: time 16-18 hrs.
Assay [6] can be described thus: Inhibition of recombinant VIM-1 (unknown origin) expressed in Escherichia coli (DE3) cells using FC5 as substrate by microplate reader assay.
Assay [7] has as its system Escherichia coli. Put plainly: Antibacterial activity against Escherichia coli C1580 expressing blaIMP-1 clinical isolates assessed as meropenem MIC incubated for 16 to 18 hrs by broth microdilution method. It is filed as functional. The note with it: time 16-18 hrs.
Assay [8] in a line: Inhibition of recombinant his tagged IMP1 (unknown origin) expressed in Escherichia coli (DE3) cells using FC5 as substrate by microplate reader assay.
In assay [9] the test system is Klebsiella pneumoniae. Put plainly: Antibacterial activity against Klebsiella pneumoniae BAA2470 expressing blaNDM-1 clinical isolates assessed as meropenem MIC incubated for 16 to 18 hrs by broth microdilution method. It is filed as functional. The settings on record: time 16-18 hrs.
The test system of assay [10] is Enterobacterales. Put plainly: Antibacterial activity against Carbapenem-Resistant Enterobacterales 19 expressing blaNDM-1 clinical isolates assessed as meropenem MIC incubated for 16 to 18 hrs by broth microdilution method. It counts as functional. The settings on record: time 16-18 hrs.
Assay [11] relates to Enterobacterales. Put plainly: Antibacterial activity against Carbapenem-Resistant Enterobacterales 19 expressing blaNDM-1 clinical isolates assessed as fold potentiation incubated for 16 to 18 hrs by broth microdilution method. The settings on record: time 16-18 hrs. It is filed as functional.
Assay [12] concerns Escherichia coli. Put plainly: Antibacterial activity against Escherichia coli C1580 expressing blaIMP-1 clinical isolates assessed as fold potentiation incubated for 16 to 18 hrs by broth microdilution method. It is filed as functional. The settings on record: time 16-18 hrs.
In assay [13] the test system is Escherichia coli. Put plainly: Antibacterial activity against Escherichia coli C1541 expressing blaVIM-2 clinical isolates assessed as fold potentiation incubated for 16 to 18 hrs by broth microdilution method. The note with it: time 16-18 hrs. It counts as functional.
Assay [14] in a line: Inhibition of recombinant NDM1 (unknown origin) expressed in Escherichia coli (DE3) cells using FC5 as substrate by microplate reader assay.
Assay [15] deals with Klebsiella pneumoniae. Put plainly: Antibacterial activity against Klebsiella pneumoniae BAA2470 expressing blaNDM-1 clinical isolates assessed as fold potentiation incubated for 16 to 18 hrs by broth microdilution method. It counts as functional. The note with it: time 16-18 hrs.

As for `CC(C)(C)c1ccc(C(c2cccc(-n3cc(-c4cccc(N)c4)nn3)c2)P(=O)(O)O)cc1` (stereo not given), the MIC in [1] was determined as 2 µg/mL; in assay [4] it was 16 µg/mL; in [7], 2 µg/mL; in assay [9] it was 64 µg/mL; in assay [10] it was 8 µg/mL. Further, the negative logarithm of the IC50 (pIC50) in assay [2] is 9.00; in [3], 8.05; in assay [6], 6.15; in assay [8] it was 5.86; in assay [14], 6.74. Moreover, the “fold change (FC)” value was 8 in [5]; 8 in assay [11]; 16 in assay [12]; 8 in [13]; >2 in assay [15].
Turning to `CCCCc1ccc(C(c2cccc(-n3cc(-c4cccc(N)c4)nn3)c2)P(=O)(O)O)cc1` (stereo not given), the MIC was 2 µg/mL in assay [1]; 8 µg/mL in [4]; 1 µg/mL in assay [7]; 64 µg/mL in assay [9]; 8 µg/mL in assay [10]. The pIC50 is 9.00 in [2]; 7.82 in [3]; 6.34 in assay [6]; 6.53 in assay [8]; 6.82 in assay [14]. In addition, the “fold change (FC)” value is 16 in assay [5]; 8 in assay [11]; 32 in assay [12]; 8 in [13]; >2 in assay [15].
Regarding `CSc1ccc(C(c2cccc(-n3cc(-c4cccc(N)c4)nn3)c2)P(=O)(O)O)cc1` (stereo not given), the MIC in assay [1] turned out to be 1 µg/mL; in [4] it was 16 µg/mL; in [7] it was 2 µg/mL; in assay [9] it was 64 µg/mL; in assay [10], 8 µg/mL. Besides, the pIC50 is 9.92 in [2]; 9.00 in assay [3]; 6.19 in assay [6]; 6.96 in assay [8]; 6.30 in [14]. Moreover, the “fold change (FC)” value in assay [5] is given as 8; in [11] it was 8; in assay [12] it was 16; in assay [13], 16; in assay [15], >2.
Regarding `Nc1cccc(-c2cn(-c3cccc(C(c4ccc(-c5ccccc5)cc4)P(=O)(O)O)c3)nn2)c1` (stereo not given), the MIC in [1] turned out to be 2 µg/mL; in assay [4], 16 µg/mL; in [7] it was 2 µg/mL; in assay [9] it was 64 µg/mL; in assay [10], 8 µg/mL. In addition, the negative logarithm of the IC50 (pIC50) in assay [2] is 8.70; in assay [3], 9.37; in [6], 6.46; in assay [8] it was 6.82; in assay [14], 6.74. Further, the “fold change (FC)” value in [5] is reported as 8; in assay [11], 8; in assay [12] it was 16; in assay [13], 8; in [15], >2.
As to `CCCc1ccc(C(c2cccc(-n3cc(-c4cccc(N)c4)nn3)c2)P(=O)(O)O)cc1` (stereo not given), the MIC in [1] was found to be 2 µg/mL; in [4] it was 16 µg/mL; in [7], 2 µg/mL; in assay [9] it was 64 µg/mL; in assay [10], 8 µg/mL. Further, the negative-log IC50 (pIC50) in assay [2] was 9.25; in [3], 7.85; in assay [6] it was 6.28; in assay [8], 6.72; in assay [14], 6.34. Further, the “fold change (FC)” value is 8 in assay [5]; 8 in [11]; 16 in assay [12]; 8 in assay [13]; >2 in assay [15].
Turning to `N#Cc1ccc(C(c2cccc(-n3cc(-c4cccc(N)c4)nn3)c2)P(=O)(O)O)cc1` (stereo not given), the MIC in assay [1] came out at 2 µg/mL; in [4], 16 µg/mL; in assay [7], 2 µg/mL; in [9] it was 64 µg/mL; in [10] it was 8 µg/mL. The pIC50 in assay [2] was 8.52; in assay [3], 7.28; in assay [6], 6.57; in [8], 6.96; in assay [14], 5.95. In addition, the “fold change (FC)” value is 8 in assay [5]; 8 in assay [11]; 16 in assay [12]; 8 in [13]; >2 in assay [15].
On to `Nc1ccccc1-c1cn(-c2cccc(CP(=O)(O)O)c2)nn1`, for which the MIC in assay [1] was 1 µg/mL; in [4], 32 µg/mL; in [7], 2 µg/mL; in assay [9], 128 µg/mL; in [10], 8 µg/mL. In addition, the pIC50 in [2] was 6.29; in [3] it was 7.89; in [6], 5.25; in assay [8] it was 5.19; in [14], 5.11. Further, the “fold change (FC)” value in assay [5] was 4; in assay [11], 8; in assay [12] it was 16; in assay [13], 16; in assay [15] it was >1.

A word on the MIC: it is the smallest concentration in the dilution series that meets the test's criterion for growth inhibition. Broadly, the pIC50 is the IC50 on a negative log10 scale, so that one unit is a factor of ten.
